Assay results taken from patent US20160235807A1, “AGONISTS OF GUANYLATE CYCLASE USEFUL FOR DOWNREGULATION OF PRO-INFLAMMATORY CYTOKINES” (SYNERGY PHARMACEUTICALS, INC., priority 2013, published 2016).
“Also recorded” adds a separate entry of the source. Bridge positions count the residues as written; N and C are the ends. Square brackets hold non-standard residues; d marks the D form. Peptide text beside a SMILES is read from it.

Assays:
[1] = format: in vitro ADME
Method: (§1) Plecanatide and SP-333 were incubated in simulated intestinal fluid (SIF) for 6-24 h. Inactivated SIF was used as a control. Following the treatment, samples were analyzed by HPLC by cGMP production in T84 cells. […] The active metabolite, SP-338 was characterized by MS and MS/MS and identified to be formed via removal of carboxyl terminal leucine possibly due to cleavage by carboxypeptidases.

GC-C Receptor [2] = biological target: T1, GC-C Receptor (Homo sapiens, UniProt P25092); experiment: cGMP stimulation assay in T84 cells in the presence of zaprinast (Example 2); format: cell-based
T1 construct: endogenous in cells; host or cells: T84 human colon carcinoma cells
Method: Confluent monolayers of T84 cells in 24-well plates were pre-incubated with indicated amounts of SP-333 in the presence of zaprinast for 30 minutes at 37° C. Subsequently, the reaction was terminated by 3% perchloric acid and neutralized with 0.5N NaOH. Intracellular cGMP levels were determined in lysates using a ELISA kit (Cayman Chemical). All samples were analyzed in duplicates. Total protein was quantitated using Pierce BCA protein assay (Thermo Fisher Scientific).

[3] = test system: myeloperoxidase (MPO) activity in colon tissues; experiment: MPO activity in lysates from mid-colon tissues, DSS-induced colitis in BDF-1 mice; format: in vivo, mouse
Method: A total of 40 samples were chosen for analysis of MPO activity and Ki-67 labeling from the treatment groups that received SP-333, its vehicle control (0.1M phosphate buffer, pH 7) and the reference compound (5-ASA). A random number generator (www.random.org) was employed to select samples from these groups (7 from each of the SP-333-recipient groups and 6 from each of the vehicle and 5-ASA groups).
Myeloperoxidase activity in colonic tissue samples was performed according to the method described (Krawisc et al., 1984). Briefly, the rate of change in absorbance at 450 nm was recorded when 20 μl of tissue extract was incubated with […] of reaction buffer containing 0.26 mg/ml 0-dianisidine and 0.6 μl/ml H2O2. Each reaction was performed in triplicate. The rate of reaction was determined (initial slope) and normalized to protein concentration of sample.

[4] = format: in vitro ADME; remark: listed apart in the source
Method: (§2) The potency of test peptides to stimulate cGMP synthesis in T84 cells was assayed by a published procedure (Shailubhai et al. 2000). Briefly, confluent monolayers of T-84 cells in 24-well plates were washed twice with 250 μl of DMEM containing 50 mM HEPES (pH 7.4), pre-incubated at 37° C. for 10 min with 250 μl of DMEM containing 50 mM HEPES (pH 7.4) and 1 mM isobutylmethylxanthine (IBMX), followed by incubation with test peptide for 30 min. The medium was aspirated, and the reaction was terminated by the addition of 3% perchloric acid. Following centrifugation, and neutralization with 0.1 N NaOH, the resulting supernatant was used directly for measurements of intracellular cGMP using an ELISA kit (Caymen Chemical, Ann Arbor, Mich.). Results are expressed as pmol of cGMP/mg of protein in the cell extracts.
as §1

GC-C Receptor [5] = biological target: T1, GC-C Receptor; experiment: Cyclic GMP stimulation assay in T84 cells; format: cell-based
Method: as §2

LPS stimulated T84 cells = experiment: Cytokines expression analysis (ELISA) in LPS stimulated T84 cells; format: cell-based, human; settings: LPS 10 μg/ml 4 h, then SP-333 16 h
Method: To evaluate the effect of different concentrations of SP-333 on secretion of cytokines (IL-8 and TNF), 12-well plates seeded with 10^5 cells/well were used. At 85-90% confluence, cells were washed with DPBS and treated with or without LPS (10 μg/ml) for 4 h, followed by washing with phosphate buffered saline (PBS). SP-333 at 0, 0.01, 0.1, 1 and 10 μM) together with 500 μM of Zaprinast was added to the treated cells and incubated further for 16 h. The levels of IL-8 and TNF were quantified using human IL-8 and TNF ELISA development kits (Peprotech, Rocky Hill, N.J.) Each ELISA was performed in triplicate with cell-free supernatants from two independent experiments. The protein concentration of each well was assessed by Bio-Rad protein dye detection kit.

T84 cells = experiment: Quantitative RT-PCR for transcripts in T84 cells; format: cell-based, human
Method: T-84 cells (˜10^7 cells) were treated with 1 μM SP-333 for 5 h. Subsequently, cDNA was prepared from total RNA using High Capacity RNA-to-cDNA Kit (Applied Biosystems, Carlsbad, Calif.) according to manufacturer's instructions. Quantitative Real-Time PCR amplification and analysis were carried out using Lightcycler 480 (Roche, Basel Switzerland), p65 and IKK-13 specific Taqman gene expression assays and Lightcycler 480 Probe master. All amplification assays were performed in duplicate employing 20 ng cDNA (based on input RNA). The total reaction volume was adjusted to 20 μL with appropriate amounts of TaqMan gene expression assays, Lightcycler 480 probe master and distilled water, then subjected to 45 PCR cycles using default cycling parameters. GAPDH transcript was used as endogenous control. The data generated were analyzed and expressed as target gene expression relative to endogenous control using comparative Cp method and 2^−ΔΔCp formula (comparative Cp values and advanced quantitative relative quantification method). TaqMan reagents were obtained from Applied Biosystems (Carlsbad, Calif.).
T-84 cells were treated with 1 μM SP-333 for 5 hours. Subsequently, cDNA was prepared from total RNA and subjected to quantitative Real-Time PCR using TaqMan reagents from Applied Biosystems.

[6] = SP-333 1 μM, 5 h, compared to unstimulated T84 cells, FIG. 3D
[7] = T84 cells, compared to untreated cells, FIG. 16

T1 sequence (P25092 24-1073): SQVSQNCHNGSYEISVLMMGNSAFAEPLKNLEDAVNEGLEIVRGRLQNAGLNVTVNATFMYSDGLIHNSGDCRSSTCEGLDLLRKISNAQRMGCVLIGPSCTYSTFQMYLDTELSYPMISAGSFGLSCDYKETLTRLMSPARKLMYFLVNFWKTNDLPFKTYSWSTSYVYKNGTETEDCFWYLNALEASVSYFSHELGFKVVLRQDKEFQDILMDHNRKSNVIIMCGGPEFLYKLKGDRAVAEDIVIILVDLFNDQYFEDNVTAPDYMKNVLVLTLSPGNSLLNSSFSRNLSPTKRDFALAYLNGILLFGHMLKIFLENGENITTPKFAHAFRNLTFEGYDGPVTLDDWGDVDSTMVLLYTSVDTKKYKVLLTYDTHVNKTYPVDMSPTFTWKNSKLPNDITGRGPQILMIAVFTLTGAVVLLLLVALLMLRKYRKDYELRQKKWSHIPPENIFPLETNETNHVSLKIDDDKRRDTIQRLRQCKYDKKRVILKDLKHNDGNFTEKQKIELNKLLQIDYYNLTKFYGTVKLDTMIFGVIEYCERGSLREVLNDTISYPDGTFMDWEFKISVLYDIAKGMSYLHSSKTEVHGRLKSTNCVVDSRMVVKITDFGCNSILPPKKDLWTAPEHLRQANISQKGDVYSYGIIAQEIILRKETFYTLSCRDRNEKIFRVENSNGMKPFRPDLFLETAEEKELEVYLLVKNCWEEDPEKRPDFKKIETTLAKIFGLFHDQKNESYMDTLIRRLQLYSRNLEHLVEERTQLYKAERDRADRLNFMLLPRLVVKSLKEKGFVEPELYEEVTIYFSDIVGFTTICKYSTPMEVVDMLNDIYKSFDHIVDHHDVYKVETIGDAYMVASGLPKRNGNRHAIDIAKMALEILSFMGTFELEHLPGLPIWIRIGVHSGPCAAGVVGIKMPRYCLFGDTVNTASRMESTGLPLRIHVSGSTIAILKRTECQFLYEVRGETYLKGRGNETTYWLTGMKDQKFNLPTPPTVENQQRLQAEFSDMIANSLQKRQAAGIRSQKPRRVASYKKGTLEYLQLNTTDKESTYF

For `CC(C)C[C@@H]1NC(=O)[C@H](CCC(=O)O)NC(=O)[C@@H](NC(=O)[C@H](CCC(=O)O)NC(=O)[C@H](CC(=O)O)NC(=O)[C@H](N)CC(N)=O)CSSC[C@@H]2NC(=O)[C@H](C)NC(=O)[C@H](C(C)C)NC(=O)[C@H](CC(N)=O)NC(=O)[C@H](C(C)C)NC(=O)[C@H](CSSC[C@@H](C(=O)N[C@H](CC(C)C)C(=O)O)NC(=O)CNC(=O)[C@H]([C@@H](C)O)NC2=O)NC1=O` [SP-333, dAsn^1-Asp^2-Glu^3-Cys^4-Glu^5-Leu^6-Cys^7-Val^8-Asn^9-Val^10-Ala^11-Cys^12-Thr^13-Gly^14-Cys^15-dLeu^16] (H-[dN]DECELCVNVACTGC[dL]-OH; disulfide 4-12, 7-15; N-terminus and C-terminus assumed), the “stability in simulated gastric and intestinal fluids” value [1] was “stable”, the “concentration at which cGMP synthesis approached a plateau” value (GC-C Receptor [2]; FIG. 14) was 1 µM and the cGMP production (GC-C Receptor [2]; FIG. 15) was “enhanced”. For the same compound, the “reduction of MPO activity” value ([3]; SP-333 0.05 mg/kg) was about 50%, the MPO activity ([3]; SP-333 0.05 mg/kg, p=0.001 vs DSS group (0.048±0.004)) was 0.024±0.003 units/minute and the “MPO activity compared to DSS treated animals” value ([3]; SP-333 all doses, significant (p<0.05) except 0.5 mg/kg) was “significantly lower; also recorded: considerably reduced; also recorded: much lower”. For the same compound, the biological activity lost [4] was about 20%, the “biological activity retained” value [4] was “retains most of its biological activity” and the “potency to stimulate cGMP in T84 cells” value (GC-C Receptor [5]) was “dose dependent increase in cGMP”. The EC50 (GC-C Receptor [5]; 30 min with peptide, 1 mM IBMX) was 0.283 µM, the “LPS stimulated production of IL-8” value (LPS stimulated T84 cells) was “concentration dependent reversal” and the “LPS stimulated production of TNF” value (LPS stimulated T84 cells) was “concentration dependent reversal”. The “reduction of transcript levels of IKK-13” value (T84 cells; [6]) was “approximately 50%”, the “reduction of transcript levels of p65” value (T84 cells; [6]) was “approximately 50%” and the “decrease in IKKβ expression” value (T84 cells; [7]) was 59%. For the same compound, the “decrease in p65 expression” value (T84 cells; [7]) was 55%.
